One assay concerns the target T1, EV71 2C protein (Human enterovirus 71, UniProt Q66478).
T1 construct: In vitro expression and purification of EV71 2C protein; made in house; host or cells: Sf9 (Spodoptera frugiperda) cells infected with recombinant baculovirus
T1 sequence (Q66478 1112-1440 limits assumed): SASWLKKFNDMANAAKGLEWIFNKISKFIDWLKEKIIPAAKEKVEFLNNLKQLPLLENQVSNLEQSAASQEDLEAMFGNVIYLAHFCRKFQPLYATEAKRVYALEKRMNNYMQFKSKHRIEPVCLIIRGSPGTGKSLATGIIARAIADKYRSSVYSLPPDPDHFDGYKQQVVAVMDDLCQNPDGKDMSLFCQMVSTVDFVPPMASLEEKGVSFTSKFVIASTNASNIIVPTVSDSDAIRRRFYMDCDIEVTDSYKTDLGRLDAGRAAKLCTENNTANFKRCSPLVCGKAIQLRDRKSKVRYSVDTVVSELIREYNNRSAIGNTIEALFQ
Briefly: Inhibition of helicase activity of EV71 2C protein in vitro (dsRNA unwinding). It is filed as biochemical. The note with it: MBP-EV71 2C; dsRNA substrate; 37° C. 50 min. As to the method:
(1) A strand labeled with HEX at a concentration of 0.2 pmol/μL was added with a complementary strand RNA at the same concentration to prepare a HEX-labeled double-stranded dsRNA substrate by annealing.
(2) Annealing process: the reaction system was kept at 75° C. for 3 min, cooled to 25° C. at a rate of 1° C. per minute, and then kept at 25° C. for 2 min.
(3) The target protein and the double-stranded substrate were prepared according to the standard unwinding experiment reaction system. 5 μg of polypeptide RQ and control TAT were added respectively, and single and double strands controls were set. The single strand sample was boiled at 75° C. for 3 min and then placed on ice for 2 min.
(4) The prepared system was mixed well and then placed at 37° C. for 50 min of reaction.
(5) A mixture obtained after the reaction was subjected to electrophoresis.
(6) Finally, Typhoon 9500 was used for direct scan to obtain a HEX signal.
During electrophoresis, the single strand ran faster than the double strand. Therefore, if the MBP-2C protein had helicase activity, it can unwind the double-stranded dsRNA substrate to release a single-stranded RNA, and then the lane would show two bands, upper and lower. The single-stranded RNA (lane 2) prepared by boiling at 75° C. was used as a positive control. The reaction without protein added (lane 1) was used as a negative control.

In assay [1] the test system is EV71. Briefly: Inhibitory activity on EV71 in RD cells by CCK8 method. It is filed as cell-based, enterovirus 71 (EV71). The note with it: for Inhibition rate on EV71 virus (%): RD cells, 0.1 MOI, 24 h, CCK8. As to the method:
(1) RD cells were plated in a 96-well plate at 100 μL per well.
(2) When the cells grew to a confluence of 70%-80%, the DMEM medium containing 10% serum was replaced with a DMEM medium containing 2% serum.
(3) The polypeptide drug was gradiently diluted with the DMEM containing 2% FBS into concentrations of 0.15625 μM, 0.3125 μM, 0.625 μM, 1.25 μM, 2.5 μM, and 5 μM, and then added to a new 96-well plate at 100 μL per well, with 3 replicate wells for each concentration.
(4) The diluted virus was added to the above wells at 100 μL per well. The wells with no drug and no virus added and the wells with no drug but virus added were set as controls respectively, with a final concentration of virus of 0.1 MOI.
(4) The mixture was transferred into the 96-well plate plated with cells for another 24 h of culture, and the inhibitory activity of the polypeptide on the virus was determined by a CCK8 kit.
(5) The inhibition rates of different concentrations of the polypeptides on virus infection were calculated according to a calculation formula of: inhibition rate of polypeptide=(well with drug-well with virus)×100%/(well with no drug-well with virus).
(3) The polypeptide drug was gradiently diluted with the DMEM containing 2% FBS into concentrations of 0.15625 μM, 0.3125 μM, 0.625 μM, 1.25 μM, 2.5 μM, and 5 μM, and then added to a new 96-well plate at 100 μL per well, with 3 replicate wells for each concentration. (4) The diluted virus was added to the above wells at 100 μL per well. The wells with no drug and no virus added and the wells with no drug but virus added were set as controls respectively, with a final concentration of virus of 0.1 MOI.

Assay [2] relates to EV71. Description: Inhibition of EV71 in Vero cells (viral RNA, qRT-PCR). The assay is classed as cell-based, enterovirus 71 (EV71). Particulars: for Percentage of viral RNA in Vero cells (%): EV71, 24 h after infection. As to the method: (1) Different cells were plated in a 24-well plate.
(2) When the cells grew to a confluence of 70%-80%, the DMEM medium containing 10% serum was replaced with a DMEM medium containing 2% serum (the DMEM medium containing 2% serum was added in each well at an amount of 0.5 mL), and 5 μL of EV71 virus of 1×10^6 PFU/mL was added to each well.
(3) After 1 h, different polypeptides (RQ or control TAT) with final concentrations of 0.3125 μM, 0.625 μM, 1.25 μM, 2.5 μM, and 5 μM were added respectively. The group without polypeptide added was used as a control.
(4) The samples were collected 24 h after the infection of EV71 virus, and RNA was extracted with the total RNA extraction kit.
(5) The supernatant was discarded, then 350 μL of TRK lysate was added to each well, and the plate was put on a shaker for 5 min.
(6) 350 μL of 70% ethanol (DEPC) was added to each well, and then the plate was put on a shaker for 5 min.
(7) The solution in each well was transferred to a RNA extraction column for 1 min of centrifugation at 12000 g.
(8) The solution obtained in the recovery tube was reloaded on the column again for 1 min of centrifugation at 12000 g.
(9) RNA washing buffer 1 was added in the column for 30 s of centrifugation at 12000 g.
(10) RNA washing buffer 2 was added in the column for 1 min of centrifugation at 12000 g.
(11) Step (10) was repeated.
(12) The column alone was centrifuged at 12000 g for 2 min to completely remove the residual RNA washing buffer.
(13) 50 μL of DEPC water was added to the column for 2 min of centrifugation at 12000 g.
(14) 2 μL of RNA sample was subjected to a fluorescence quantitative experiment using the one step qRT-PCR kit.
(1) Vero E6 cells were plated in a 24-well plate.
(3) After 1 h, different polypeptides (LQ or SQ) with final concentrations of 0.3125 μM, 0.625 μM, 1.25 μM, 2.5 μM, and 5 μM were added respectively. The group without polypeptide added was used as a control.

The structures appear in SMILES notation. “And” between values parts separate entries of the source, which are not always exact repeats. Identical values can stand only once.

On to `N=C(N)NCCC[C@H](NC(=O)[C@H](CCCNC(=N)N)NC(=O)[C@H](CCCNC(=N)N)NC(=O)[C@H](CCC(N)=O)NC(=O)[C@H](CCCNC(=N)N)NC(=O)[C@H](CCCNC(=N)N)NC(=O)[C@H](CCCCN)NC(=O)[C@H](CCCCN)NC(=O)[C@H](CCCNC(=N)N)NC(=O)CNC(=O)[C@@H](N)Cc1ccc(O)cc1)C(=O)O` [TAT, YGRKKRRQRRR], for which the “helicase activity of EV71 2C” value on EV71 2C protein is listed as “did not affect the helicase activity of 2C”. The antiviral activity result in the assay with EV71 [1] (EV71 in RD cells, CCK8 method) is “no antiviral activity”. The “Inhibition rate on EV71 virus (%)” value was 1.38% and 5.231% and 2.294% with EV71 [1] (polypeptide 0.15625 μM); 2.463% and 5.242% and 6.282% in the assay with EV71 [1] (polypeptide 0.3125 μM); 8.374% and 2.34% and 7.234% with EV71 [1] (polypeptide 0.625 μM); 8.365% and 3.237% and 6.203% in the assay with EV71 [1] (polypeptide 1.25 μM); 7.373% and 4.241% and 8.213% in the assay with EV71 [1] (polypeptide 2.5 μM). Further, the “Percentage of viral RNA in Vero cells (%)” value in the assay on EV71 [2] (polypeptide 0.3125 μM) was 115.6133% and 93.75% and 91.92%; in the assay on EV71 [2] (polypeptide 0.625 μM), 121.4818% and 94.87% and 149.0928%; in the assay on EV71 [2] (polypeptide 1.25 μM), 111.6527% and 97.24% and 100.8214%; with EV71 [2] (polypeptide 2.5 μM) it was 125.8799% and 103.6078% and 137.9907%; with EV71 [2] (polypeptide 5 μM), 136.8661% and 104.0616% and 88.68%. For the same compound, the anti-EV71 effect result in the assay with EV71 [2] (Vero cells) was “no anti-EV71 effect”.
